Experimental data taken from ChEMBL document CHEMBL3885881, “DrugMatrix”.

Organism: Rattus norvegicus
Assay: DrugMatrix - Regimen: Daily Repeat
Type: toxicity, organism-based, Sprague-Dawley
Parameters: regimen Daily Repeat, gender Male, age 6-8 weeks
Settings: in vivo, po, route oral GAVAGE, vehicle .5 % CMC; for BASOPHIL / EOSINOPHIL / ERYTHROCYTE COUNT / HEMATOCRIT / HEMOGLOBIN / LEUKOCYTE COUNT / LYMPHOCYTE / MEAN CORPUSCULAR HEMOGLOBIN / MEAN CORPUSCULAR HEMOGLOBIN CONCENTRATION / MEAN CORPUSCULAR VOLUME / MONOCYTE / NEUTROPHIL / PLATELET COUNT: tissue Blood; for ALANINE AMINOTRANSFERASE / ALBUMIN / ALKALINE PHOSPHATASE / ASPARTATE AMINOTRANSFERASE / BLOOD UREA NITROGEN / CHLORIDE / CHOLESTEROL / CREATINE PHOSPHOKINASE / CREATININE / GLUCOSE / PHOSPHORUS / POTASSIUM / SODIUM / TOTAL BILIRUBIN / TOTAL PROTEIN: tissue Plasma
[1] = 0 mg/kg, 72 h, dose level Control, time 3 day
[2] = 0 mg/kg, 120 h, dose level Control, time 5 day
[3] = 36 mg/kg, 72 h, dose level Low, time 3 day
[4] = 36 mg/kg, 120 h, dose level Low, time 5 day

`CCCCc1oc2ccccc2c1C(=O)c1cc(I)c(OCCN(CC)CC)c(I)c1` [AMIODARONE] was tested, and the BASOPHIL [1] was 0%, the EOSINOPHIL [1] was 0% and the “ERYTHROCYTE COUNT” value [1] was 6.19 x10E6/uL. For the same molecule, the HEMATOCRIT [1] was 36.94%, the HEMOGLOBIN [1] was 14.58 G/DL and the “LEUKOCYTE COUNT” value [1] was 11.54 x10E3/uL. For the same molecule, the LYMPHOCYTE [1] was 84.8%, the “MEAN CORPUSCULAR HEMOGLOBIN” value [1] was 23.58 pg and the “MEAN CORPUSCULAR HEMOGLOBIN CONCENTRATION” value [1] was 39.44 G/DL. The “MEAN CORPUSCULAR VOLUME” value [1] was 59.76 fL, the MONOCYTE [1] was 1.4% and the NEUTROPHIL [1] was 13.8%. The “PLATELET COUNT” value [1] was 1068.8 x10E3/uL, the “ALANINE AMINOTRANSFERASE” value [1] was 38.17 u/L and the ALBUMIN [1] was 3.88 G/DL. For the same molecule, the “ALKALINE PHOSPHATASE” value [1] was 391.33 u/L, the “ASPARTATE AMINOTRANSFERASE” value [1] was 69.83 u/L and the “BLOOD UREA NITROGEN” value [1] was 15 mg/dL. For the same molecule, the CHLORIDE [1] was 104.17 MEQ/L, the CHOLESTEROL [1] was 72.17 mg/dL and the “CREATINE PHOSPHOKINASE” value [1] was 174.33 u/L. For the same molecule, the CREATININE [1] was 0.58 mg/dL, the GLUCOSE [1] was 192.67 mg/dL and the PHOSPHORUS [1] was 10.52 mg/dL. The POTASSIUM [1] was 6.8 MEQ/L, the SODIUM [1] was 149.67 MEQ/L and the “TOTAL BILIRUBIN” value [1] was 0.78 mg/dL. The “TOTAL PROTEIN” value [1] was 6.28 G/DL, the BASOPHIL [2] was 0% and the EOSINOPHIL [2] was 0.17%. The “ERYTHROCYTE COUNT” value [2] was 6.72 x10E6/uL, the HEMATOCRIT [2] was 40.02% and the HEMOGLOBIN [2] was 15.83 G/DL. The “LEUKOCYTE COUNT” value [2] was 9.5 x10E3/uL, the LYMPHOCYTE [2] was 87.17% and the “MEAN CORPUSCULAR HEMOGLOBIN” value [2] was 23.57 pg. The “MEAN CORPUSCULAR HEMOGLOBIN CONCENTRATION” value [2] was 39.62 G/DL, the “MEAN CORPUSCULAR VOLUME” value [2] was 59.55 fL and the MONOCYTE [2] was 1.67%. For the same molecule, the NEUTROPHIL [2] was 11%, the “PLATELET COUNT” value [2] was 1053.67 x10E3/uL and the “ALANINE AMINOTRANSFERASE” value [2] was 26.33 u/L. The ALBUMIN [2] was 4.02 G/DL, the “ALKALINE PHOSPHATASE” value [2] was 316.67 u/L and the “ASPARTATE AMINOTRANSFERASE” value [2] was 61.33 u/L. The “BLOOD UREA NITROGEN” value [2] was 18.67 mg/dL, the CHLORIDE [2] was 108 MEQ/L and the CHOLESTEROL [2] was 65.17 mg/dL. For the same molecule, the “CREATINE PHOSPHOKINASE” value [2] was 161.17 u/L, the CREATININE [2] was 0.75 mg/dL and the GLUCOSE [2] was 177.33 mg/dL. It also gave a PHOSPHORUS [2] of 9.72 mg/dL, a POTASSIUM [2] of 6.18 MEQ/L and an SODIUM [2] of 150.5 MEQ/L. For the same molecule, the “TOTAL BILIRUBIN” value [2] was 0.68 mg/dL, the “TOTAL PROTEIN” value [2] was 6.55 G/DL and the BASOPHIL [3] was 0%. The EOSINOPHIL [3] was 0%, the “ERYTHROCYTE COUNT” value [3] was 6.18 x10E6/uL and the HEMATOCRIT [3] was 36.8%. For the same molecule, the HEMOGLOBIN [3] was 14.4 G/DL, the “LEUKOCYTE COUNT” value [3] was 12.87 x10E3/uL and the LYMPHOCYTE [3] was 77%. For the same molecule, the “MEAN CORPUSCULAR HEMOGLOBIN” value [3] was 23.4 pg, the “MEAN CORPUSCULAR HEMOGLOBIN CONCENTRATION” value [3] was 39.13 G/DL and the “MEAN CORPUSCULAR VOLUME” value [3] was 59.8 fL. The MONOCYTE [3] was 2.67%, the NEUTROPHIL [3] was 20.33% and the “PLATELET COUNT” value [3] was 1095 x10E3/uL. For the same molecule, the “ALANINE AMINOTRANSFERASE” value [3] was 33 u/L, the ALBUMIN [3] was 3.77 G/DL and the “ALKALINE PHOSPHATASE” value [3] was 365.33 u/L. The “ASPARTATE AMINOTRANSFERASE” value [3] was 56.33 u/L, the “BLOOD UREA NITROGEN” value [3] was 15 mg/dL and the CHLORIDE [3] was 103.67 MEQ/L. For the same molecule, the CHOLESTEROL [3] was 84.33 mg/dL, the “CREATINE PHOSPHOKINASE” value [3] was 134.67 u/L and the CREATININE [3] was 0.7 mg/dL. For the same molecule, the GLUCOSE [3] was 159.33 mg/dL, the PHOSPHORUS [3] was 11.13 mg/dL and the POTASSIUM [3] was 6.63 MEQ/L. For the same molecule, the SODIUM [3] was 148.67 MEQ/L, the “TOTAL BILIRUBIN” value [3] was 0.7 mg/dL and the “TOTAL PROTEIN” value [3] was 6.13 G/DL. For the same molecule, the BASOPHIL [4] was 0%, the EOSINOPHIL [4] was 0.33% and the “ERYTHROCYTE COUNT” value [4] was 6.73 x10E6/uL. The HEMATOCRIT [4] was 39.47%, the HEMOGLOBIN [4] was 15.6 G/DL and the “LEUKOCYTE COUNT” value [4] was 11.67 x10E3/uL. The LYMPHOCYTE [4] was 86.33%, the “MEAN CORPUSCULAR HEMOGLOBIN” value [4] was 23.27 pg and the “MEAN CORPUSCULAR HEMOGLOBIN CONCENTRATION” value [4] was 39.63 G/DL. The “MEAN CORPUSCULAR VOLUME” value [4] was 58.73 fL, the MONOCYTE [4] was 2% and the NEUTROPHIL [4] was 11.33%. The “PLATELET COUNT” value [4] was 1213.67 x10E3/uL, the “ALANINE AMINOTRANSFERASE” value [4] was 26 u/L and the ALBUMIN [4] was 3.93 G/DL. The “ALKALINE PHOSPHATASE” value [4] was 392.33 u/L, the “ASPARTATE AMINOTRANSFERASE” value [4] was 57.67 u/L and the “BLOOD UREA NITROGEN” value [4] was 14.67 mg/dL. For the same molecule, the CHLORIDE [4] was 106.67 MEQ/L, the CHOLESTEROL [4] was 88 mg/dL and the “CREATINE PHOSPHOKINASE” value [4] was 148.33 u/L. It also gave a CREATININE [4] of 0.7 mg/dL, a GLUCOSE [4] of 154.67 mg/dL and a PHOSPHORUS [4] of 10.83 mg/dL. The POTASSIUM [4] was 6.67 MEQ/L, the SODIUM [4] was 150.33 MEQ/L and the “TOTAL BILIRUBIN” value [4] was 0.93 mg/dL. The “TOTAL PROTEIN” value [4] was 6.6 G/DL.
